Measurements from ChEMBL document CHEMBL1126980, “New, potent anthelmintic and acaricidal agents: 4-deoxy-4-thio-substituted avermectin derivatives” (Bioorg Med Chem Lett, 1993).
In brackets after ≈: the same amount, converted by molar mass.

How the values were obtained:
[1] = test system: Tetranychus urticae; assay: Tested for acaricidal efficacy using a Tetranychus urticae (two-spotted spider mite, TSSM) contact assay; format: functional; set-up: concentration or dose not given beside the values
[2] = test system: Caenorhabditis elegans; assay: Tested in vitro for the biological efficacy using Caenorhabditis elegans binding assay; format: functional, organism-based
[3] = test system: Artemia salina; assay: Tested in vitro for the biological efficacy using Artemia salina (brine shrimp) immobilization assay; format: functional
[4] = test system: Trichostrongylus colubriformis; assay: Tested in vivo for the biological efficacy using Trichostrongylus colubriformis gerbil assay; format: functional
[5] = test system: Ovis aries; assay: Tested for the anthelmintic efficacy against Cooperia curticei at 0.1 mg/kg; range is 91-100%; format: functional
[6] = test system: Ovis aries; assay: Tested for the anthelmintic efficacy against Oesphagostomum columbianum at 0.1 mg/kg; range is 91-100%; format: functional
[7] = test system: Ovis aries; assay: Tested for the anthelmintic efficacy against Trichostrongylus axei at 0.1 mg/kg; range is 91-100%; format: functional
[8] = test system: Ovis aries; assay: Tested for anthelmintic efficacy against Haemonchus contortus at 0.1 mg/kg; range is 91-100%; format: functional
[9] = test system: Ovis aries; assay: Tested for the anthelmintic efficacy against Trichostrongylus colubriformis at 0.1 mg/kg; range is 91-100%; format: functional
[10] = test system: Ovis aries; assay: Tested for the anthelmintic efficacy against Ostertagia circumcincta at 0.1 mg/kg; range is 91-100%; format: functional

Row | Compound | Mortality [1] | IC50 [2] | IC100 [3] | ED85 [4] | Reduction [5] | Reduction [6] | Reduction [7] | Reduction [8] | Reduction [9] | Reduction [10]
1 | CCC(C)[C@H]1O[C@]2(CC[C@@H]1C)C[C@@H]1C[C@@H](C/C=C(\C)[C@@H](O[C@H]3C[C@H](OC)[C@@H](O[C@H]4C[C@H](OC)[C@H]([S+]([O-])CCO)[C@H](C)O4)[C@H](C)O3)[C@@H](C)/C=C/C=C3\CO[C@@H]4[C@H](O)C(C)=C[C@@H](C(=O)O1)[C@]34O)O2 (some centres not stated) | 31% | 0.188 ng/mL (≈ 0.198 nM) | 870 ng/mL | 0.25 mg/kg | – | – | – | – | – | –
2 | CCC(C)[C@H]1O[C@]2(C=C[C@@H]1C)C[C@@H]1C[C@@H](C/C=C(\C)[C@@H](O[C@H]3C[C@H](OC)[C@@H](O[C@H]4C[C@H](OC)[C@@H](SCC(C)O)[C@H](C)O4)[C@H](C)O3)[C@@H](C)/C=C/C=C3\CO[C@@H]4[C@H](O)C(C)=C[C@@H](C(=O)O1)[C@]34O)O2 (some centres not stated) | 88% | 0.153 ng/mL (≈ 0.162 nM) | 870 ng/mL | 0.125 mg/kg | – | – | – | – | – | –
3 | CCC(C)[C@H]1O[C@]2(C=C[C@@H]1C)C[C@@H]1C[C@@H](C/C=C(\C)[C@@H](O[C@H]3C[C@H](OC)[C@@H](O[C@H]4C[C@H](OC)[C@@H](SCCCO)[C@H](C)O4)[C@H](C)O3)[C@@H](C)/C=C/C=C3\CO[C@@H]4[C@H](O)C(C)=C[C@@H](C(=O)O1)[C@]34O)O2 (some centres not stated) | 53% | 0.153 ng/mL (≈ 0.162 nM) | 870 ng/mL | 0.25 mg/kg | – | – | – | – | – | –
4 | CCC(C)[C@H]1O[C@]2(CC[C@@H]1C)C[C@@H]1C[C@@H](C/C=C(\C)[C@@H](O[C@H]3C[C@H](OC)[C@@H](O[C@H]4C[C@H](OC)[C@H](S(=O)(=O)CCO)[C@H](C)O4)[C@H](C)O3)[C@@H](C)/C=C/C=C3\CO[C@@H]4[C@H](O)C(C)=C[C@@H](C(=O)O1)[C@]34O)O2 (some centres not stated) | 48% | 0.119 ng/mL (≈ 0.123 nM) | 650 ng/mL | 0.125 mg/kg | 91% | 91% | 91% | 91% | 91% | 91%
5 | CCC(C)[C@H]1O[C@]2(C=C[C@@H]1C)C[C@@H]1C[C@@H](C/C=C(\C)[C@@H](O[C@H]3C[C@H](OC)[C@@H](O[C@H]4C[C@H](OC)[C@@H]([S+]([O-])CCO)[C@H](C)O4)[C@H](C)O3)[C@@H](C)/C=C/C=C3\CO[C@@H]4[C@H](O)C(C)=C[C@@H](C(=O)O1)[C@]34O)O2 (some centres not stated) | 69% | 0.469 ng/mL (≈ 0.494 nM) | 870 ng/mL | 0.063 mg/kg | – | – | – | – | – | –
6 | CCC(C)[C@H]1O[C@]2(C=C[C@@H]1C)C[C@@H]1C[C@@H](C/C=C(\C)[C@@H](O[C@H]3C[C@H](OC)[C@@H](O[C@H]4C[C@H](OC)[C@H]([S+]([O-])CCO)[C@H](C)O4)[C@H](C)O3)[C@@H](C)/C=C/C=C3\CO[C@@H]4[C@H](O)C(C)=C[C@@H](C(=O)O1)[C@]34O)O2 (some centres not stated) | 13% | > 1.27 ng/mL | 1300 ng/mL | 0.125 mg/kg | – | – | – | – | – | –
7 | CCC(C)[C@H]1O[C@]2(C=C[C@@H]1C)C[C@@H]1C[C@@H](C/C=C(\C)[C@@H](O[C@H]3C[C@H](OC)[C@@H](O[C@H]4C[C@H](OC)[C@@H](SCCNC(C)=O)[C@H](C)O4)[C@H](C)O3)[C@@H](C)/C=C/C=C3\CO[C@@H]4[C@H](O)C(C)=C[C@@H](C(=O)O1)[C@]34O)O2 (some centres not stated) | 63% | 0.165 ng/mL (≈ 0.169 nM) | 870 ng/mL | 0.063 mg/kg | – | – | – | – | – | –
8 | CCC(C)[C@H]1O[C@]2(C=C[C@@H]1C)C[C@@H]1C[C@@H](C/C=C(\C)[C@@H](O[C@H]3C[C@H](OC)[C@H](SCCO)[C@H](C)O3)[C@@H](C)/C=C/C=C3\CO[C@@H]4[C@H](O)C(C)=C[C@@H](C(=O)O1)[C@]34O)O2 (some centres not stated) | 94% | – | 870 ng/mL | 0.063 mg/kg | – | – | – | – | – | –
9 | CCC(C)[C@H]1O[C@]2(C=C[C@@H]1C)C[C@@H]1C[C@@H](C/C=C(\C)[C@@H](O[C@H]3C[C@H](OC)[C@H](SC)[C@H](C)O3)[C@@H](C)/C=C/C=C3\CO[C@@H]4[C@H](O)C(C)=C[C@@H](C(=O)O1)[C@]34O)O2 (some centres not stated) | 100% | 0.422 ng/mL (≈ 0.556 nM) | 6930 ng/mL | 0.125 mg/kg | – | – | – | – | – | –
10 | CCC(C)[C@H]1O[C@]2(C=C[C@@H]1C)C[C@@H]1C[C@@H](C/C=C(\C)[C@@H](O[C@H]3C[C@H](OC)[C@@H](O[C@H]4C[C@H](OC)[C@@H](S(=O)(=O)CC)[C@H](C)O4)[C@H](C)O3)[C@@H](C)/C=C/C=C3\CO[C@@H]4[C@H](O)C(C)=C[C@@H](C(=O)O1)[C@]34O)O2 (some centres not stated) | 64% | 0.123 ng/mL (≈ 0.13 nM) | 870 ng/mL | 0.063 mg/kg | – | – | – | – | – | –
11 | CCC(C)[C@H]1O[C@]2(C=C[C@@H]1C)C[C@@H]1C[C@@H](C/C=C(\C)[C@@H](O[C@H]3C[C@H](OC)[C@@H](O[C@H]4C[C@H](OC)[C@H](SCC(C)O)[C@H](C)O4)[C@H](C)O3)[C@@H](C)/C=C/C=C3\CO[C@@H]4[C@H](O)C(C)=C[C@@H](C(=O)O1)[C@]34O)O2 (some centres not stated) | 89% | 0.216 ng/mL (≈ 0.228 nM) | 870 ng/mL | 0.063 mg/kg | – | – | – | – | – | –
12 | CCC(C)[C@H]1O[C@]2(C=C[C@@H]1C)C[C@@H]1C[C@@H](C/C=C(\C)[C@@H](O[C@H]3C[C@H](OC)[C@@H](O[C@H]4C[C@H](OC)[C@@H](S(=O)(=O)CCO)[C@H](C)O4)[C@H](C)O3)[C@@H](C)/C=C/C=C3\CO[C@@H]4[C@H](O)C(C)=C[C@@H](C(=O)O1)[C@]34O)O2 (some centres not stated) | 64% | 0.351 ng/mL (≈ 0.364 nM) | 870 ng/mL | 0.063 mg/kg | – | – | – | – | – | –
13 | CCC(C)[C@H]1O[C@]2(CC[C@@H]1C)C[C@@H]1C[C@@H](C/C=C(\C)[C@@H](O[C@H]3C[C@H](OC)[C@@H](O[C@H]4C[C@H](OC)[C@H](S(C)(=O)=O)[C@H](C)O4)[C@H](C)O3)[C@@H](C)/C=C/C=C3\CO[C@@H]4[C@H](O)C(C)=C[C@@H](C(=O)O1)[C@]34O)O2 (some centres not stated) | 64% | 0.084 ng/mL (≈ 0.0896 nM) | 870 ng/mL | 0.125 mg/kg | – | – | – | – | – | –
14 | CCC(C)[C@H]1O[C@]2(C=C[C@@H]1C)C[C@@H]1C[C@@H](C/C=C(\C)[C@@H](O[C@H]3C[C@H](OC)[C@@H](O[C@H]4C[C@H](OC)[C@H](S(=O)(=O)CC)[C@H](C)O4)[C@H](C)O3)[C@@H](C)/C=C/C=C3\CO[C@@H]4[C@H](O)C(C)=C[C@@H](C(=O)O1)[C@]34O)O2 (some centres not stated) | 68% | 0.128 ng/mL (≈ 0.135 nM) | 650 ng/mL | 0.031 mg/kg | – | – | – | – | – | –
15 | CCC(C)[C@H]1O[C@]2(C=C[C@@H]1C)C[C@@H]1C[C@@H](C/C=C(\C)[C@@H](O[C@H]3C[C@H](OC)[C@@H](O[C@H]4C[C@H](OC)[C@H](S(C)(=O)=O)[C@H](C)O4)[C@H](C)O3)[C@@H](C)/C=C/C=C3\CO[C@@H]4[C@H](O)C(C)=C[C@@H](C(=O)O1)[C@]34O)O2 (some centres not stated) | 45% | 0.132 ng/mL (≈ 0.141 nM) | 430 ng/mL | 0.063 mg/kg | 91% | 91% | 91% | 91% | 91% | 91%
16 | CCC(C)[C@H]1O[C@]2(C=C[C@@H]1C)C[C@@H]1C[C@@H](C/C=C(\C)[C@@H](O[C@H]3C[C@H](OC)[C@@H](O[C@H]4C[C@H](OC)[C@H]([S+](C)[O-])[C@H](C)O4)[C@H](C)O3)[C@@H](C)/C=C/C=C3\CO[C@@H]4[C@H](O)C(C)=C[C@@H](C(=O)O1)[C@]34O)O2 (some centres not stated) | 64% | 0.262 ng/mL (≈ 0.285 nM) | 870 ng/mL | 0.031 mg/kg | 91% | 91% | 91% | 91% | 91% | 91%
17 | CCC(C)[C@H]1O[C@]2(C=C[C@@H]1C)C[C@@H]1C[C@@H](C/C=C(\C)[C@@H](O[C@H]3C[C@H](OC)[C@@H](O[C@H]4C[C@H](OC)[C@@H]([S+](C)[O-])[C@H](C)O4)[C@H](C)O3)[C@@H](C)/C=C/C=C3\CO[C@@H]4[C@H](O)C(C)=C[C@@H](C(=O)O1)[C@]34O)O2 (some centres not stated) | – | – | 430 ng/mL | 0.016 mg/kg | 91% | 91% | 91% | 91% | 91% | 91%
18 | CCC(C)[C@H]1O[C@]2(CC[C@@H]1C)C[C@@H]1C[C@@H](C/C=C(\C)[C@@H](O[C@H]3C[C@H](OC)[C@@H](O[C@H]4C[C@H](OC)[C@H]([S+](C)[O-])[C@H](C)O4)[C@H](C)O3)[C@@H](C)/C=C/C=C3\CO[C@@H]4[C@H](O)C(C)=C[C@@H](C(=O)O1)[C@]34O)O2 (some centres not stated) | 77% | 0.108 ng/mL (≈ 0.117 nM) | 870 ng/mL | 0.063 mg/kg | – | – | – | – | – | –
19 | CCC(C)[C@H]1O[C@]2(C=C[C@@H]1C)C[C@@H]1C[C@@H](C/C=C(\C)[C@@H](O[C@H]3C[C@H](OC)[C@@H](O)[C@H](C)O3)[C@@H](C)/C=C/C=C3\CO[C@@H]4[C@H](O)C(C)=C[C@@H](C(=O)O1)[C@]34O)O2 (some centres not stated) [AVERMECTIN MS] | 93% | 0.81 ng/mL (≈ 1.11 nM) | 430 ng/mL | 0.075 mg/kg | – | – | – | – | – | –
20 | CCC(C)[C@H]1O[C@]2(C=C[C@@H]1C)C[C@@H]1C[C@@H](C/C=C(\C)[C@@H](O[C@H]3C[C@H](OC)[C@@H](O[C@H]4C[C@H](OC)[C@@H](O)[C@H](C)O4)[C@H](C)O3)[C@@H](C)/C=C/C=C3\CO[C@@H]4[C@H](O)C(C)=C[C@@H](C(=O)O1)[C@]34O)O2 (some centres not stated) [AVERMECTIN] | 95% | 0.073 ng/mL (≈ 0.0836 nM) | 400 ng/mL | 0.031 mg/kg | 91% | 91% | 91% | 91% | 91% | 91%
